2 substances from patent US5783568A, “Methods for treating cancer and other cell proliferative diseases” (Sugen, Inc., priority 1994, dated 1998) can be followed below.

In test [1] the test system is sFGFR (soluble extracellular domain of FGFR2). In words: Isothermal titration calorimetry, heparin binding to sFGFR. The arrangement: species or system human. Particulars: ITC. A general note: In ITC the heat of successive injections is recorded.
In another test the target is T1, aFGF (Homo sapiens, UniProt P05230).
T1 construct: made in house; host or cells: E. coli
In words: Isothermal titration calorimetry, binding to aFGF. Conditions: from ITC stoichiometry.

Test [2] deals with FGFR2 (bek). In words: Cross-linking (BS^3) of FGF receptors in mutant CHO-pgsD-677 cells, receptor dimerization. It is filed as cell-based, human. Particulars: 0.1 nM aFGF, with or without 50 nM heparin. On the procedure:
Parental (lanes 1-4) and mutant CHO cells (lanes 5-8) were incubated with either 50 nM heparin (lanes 2 and 6), 0.1 nM aFGF (lanes 3 and 7), or both (lanes 4 and 8), for 1 hour at 4° C. Cells were then treated with the covalent cross-linking agent BS^3 for […] at room temperature, solubilized and immunoprecipitated with anti-FGFR2 antibodies. The samples were analyzed by a gradient SDS gel (6-8%), transferred to nitrocellulose membranes and probed with anti-FGFR2 antibodies. M--FGFR monomers; D--FGFR dimers.
Cells grown in fibronectin-coated dishes were starved overnight in F-12 medium containing 0.5% FBS. Cells were then washed with ice-cold binding medium (F-12 medium containing 20 mM Hepes (pH 7.5) and 0.1% BSA), and incubated for 1 hour at 4° C. with either aFGF (0.1 nM), heparin (50 nM), or both. The cells were then washed twice with cold PBS and incubated with 1 mM BS^3 in PBS for 20 minutes at room temperature. The cross-linking reaction was quenched by the addition of 50 mM Tris-HCl and 100 mM glycine for 10 min at room temperature. […]
Full-length FGFR2 was transfected into two CHO cell lines; wild-type CHO-K1, and the mutant CHO-pgsD-677, which is defective in heparin sulfate expression at its cell-surface (Esko, 1991). […] Cells were then lysed, and immunoprecipitated FGFR2 was analyzed by SDS-PAGE followed by immunoblotting with anti-FGFR2 antibodies.

The test system of test [3] is FGFR2 (bek). In words: Tyrosine phosphorylation of FGFR2 in wild-type CHO-K1 cells. The class given is cell-based, human. Conditions: 0.1 nM aFGF alone, 5 min at 37° C. How it is done: Cells were lysed and the receptor was immunoprecipitated with anti-FGFR2 antibodies. Samples were then analyzed by SDS-PAGE, transferred to nitrocellulose membranes, and tyrosine-phosphorylated proteins were detected by immunoblotting with anti-phosphotyrosine antibodies.
Wild-type CHO cells (CHO-K1), as well as heparin sulfate-deficient mutant cells (CHO-pgsD-677) which were kindly provided by Prof. J. Esko (Esko, 1991), were cultured in F-12 medium containing 7.5% FBS, 1% Ampicillin/Streptomycin and 1% glutamine. Both CHO cell lines were co-transfected with the wild-type human FGFR2 (bek) DNA in the expression vector pMJ30 (Dionne et al., 1990) (40 μg/10 cm dish) and the pSVneo resistant gene (0.5 mg/10 cm dish), using the calcium phosphate method (Chen and Okayama, 1987). Geneticin (1 mg/ml) resistant clones were screened for expression of the receptor by immunoprecipitation and immunoblotting analysis using anti-FGFR2 antibodies.
Wild-type and mutant CHO cells were starved overnight in F-12 medium containing 0.5% FBS, and stimulated with either 0.1 nM aFGF, 50 nM heparin, or both, for 5 min at 37° C. Cells were lysed, immunoprecipitated with anti-FGFR2 antibodies and analyzed by immunoblotting with anti-phosphotyrosine (anti-PTyr) antibodies.

Entries after “also recorded” stand apart in the source; their conditions may differ.

T1 sequence (P05230 whole entry): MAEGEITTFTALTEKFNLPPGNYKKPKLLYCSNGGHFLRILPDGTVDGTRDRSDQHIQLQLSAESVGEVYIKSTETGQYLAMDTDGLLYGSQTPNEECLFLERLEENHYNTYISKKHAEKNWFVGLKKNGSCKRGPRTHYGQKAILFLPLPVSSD

For heparin, the “heparin binding to sFGFR” value in test [1] is reported as “failed to detect an interaction with significant affinity; also recorded: could not be detected; also recorded: does not itself interact with sFGFR”. The “saccharide units of heparin per one bound aFGF” value on aFGF was 4-5 saccharide units.
Consider “aFGF: aFGF was expressed in E. coli and purified by binding to a heparin-sepharose column”, for which the “receptor dimerization in mutant CHO-pgsD-677 cells” value in the test with FGFR2 (bek) [2] was “could only induce the dimerization of FGFR2 when exogenous heparin was added; also recorded: can only induce FGFR dimerization in the presence of heparin”. The “FGFR2 autophosphorylation in CHO-K1 cells” value in the test with FGFR2 (bek) [3] is recorded as “stimulation of FGFR2 autophosphorylation”.
